Consider one compound from US20110190162A1, “METHOD OF NUCLEIC ACID DELIVERY INTO THREE-DIMENSIONAL CELL CULTURE ARRAYS” (priority 2009, published 2011).

In series [1] the test system is parent HepG2 cells (control). In words: Acetaminophen toxicity, cell viability. Type of series: cell-based. As to conditions: Homo sapiens, 24 h exposure, read-out: calculated IC50 (cell viability).
Series [2] can be described thus: Metabolism-induced toxicity assay, cell viability. As to conditions: human, HepG2 cells infected with Ad-3A4 (expressing CYP3A4); HepG2 transfected with Ad-3A4 at 40 MOI, 24 h exposure; read-out: calculated IC50 (cell viability). It counts as cell-based. Here is the method: Metabolism-induced toxicity assay was performed with acetaminophen on HepG2 cells expressing CYP3A4. After transfecting HepG2 cells with Ad-3A4 at 40 MOI, HepG2 cells were exposed to acetaminophen at varying concentrations for 24 h. HepG2 cell viability decreased as acetaminophen concentration increased.

As to `CC(=O)Nc1ccc(O)cc1` [acetaminophen], the IC50 in series [1] was 17.5 mM. Besides, the IC50 at 24 h in series [2] was 7.3 mM.

Usually IC50 stands for the concentration at which inhibition is half-maximal.
